Test results from ChEMBL document CHEMBL1201862, “PubChem BioAssay data set” (2004).
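1) Cells in 96-well plates. 2) Compound, 48 h, 5 concentrations. 3) Linear interpolation between surrounding doses. 4) Unreached endpoint = highest concentration. GI50 marks 50% less growth.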 Calls of active or inactive are those of the source. No stated cut-off is given here; in the data, active = GI50 up to about 1.1 µM and inactive = higher.

What was measured:
Assay in all cases: NCI-60 cell line screen, 48 h
A498 = system: A498
A549 = system: A549
ACHN = system: ACHN
CAKI-1 = system: CAKI-1
HCT-15 = system: HCT-15
K562 = system: K562
LOX IMVI = system: LOX IMVI
M14 = system: M14
RPMI-8226 = system: RPMI-8226
RXF 393 = system: RXF 393
SF-295 = system: SF-295
SK-MEL-2 = system: SK-MEL-2
SK-MEL-5 = system: SK-MEL-5
SNB-19 = system: SNB-19
SR = system: SR
U-251 = system: U-251
UACC-257 = system: UACC-257

Row | SMILES | GI50 (A498) | GI50 (A549) | GI50 (ACHN) | GI50 (CAKI-1) | GI50 (HCT-15) [µM] | GI50 (K562) | GI50 (LOX IMVI) | GI50 (M14) | GI50 (RPMI-8226) | GI50 (RXF 393) | GI50 (SF-295) | GI50 (SK-MEL-2) | GI50 (SK-MEL-5) | GI50 (SNB-19) | GI50 (SR) | GI50 (U-251) | GI50 (UACC-257)
1 | C#CCNC(=O)NC(CCCNC(=O)OCc1ccccc1)C(=O)OCc1ccccc1 (stereo not given) | > 100 µM (inactive) | > 100 µM (inactive) | > 100 µM (inactive) | 33.8 µM (inactive) | > 100 | > 100 µM (inactive) | 95.1 µM (inactive) | 24.5 µM (inactive) | > 100 µM (inactive) | 30.1 µM (inactive) | > 100 µM (inactive) | 33.7 µM (inactive) | 84.1 µM (inactive) | > 100 µM (inactive) | > 100 µM (inactive) | > 100 µM (inactive) | 27.9 µM (inactive)
2 | COc1ccc(C2=NOP(c3ccccc3)(c3ccccc3)(c3ccccc3)C2)cc1 | 33.3 µM (inactive) | 22.5 µM (inactive) | 29.3 µM (inactive) | 25.1 µM (inactive) | 20.4 | 4.25 µM (inactive) | 10.1 µM (inactive) | 10.8 µM (inactive) | 10.6 µM (inactive) | 28.9 µM (inactive) | 2.92 µM (inactive) | 7.08 µM (inactive) | 13.3 µM (inactive) | 51.4 µM (inactive) | 7.46 µM (inactive) | 23.5 µM (inactive) | 28.8 µM (inactive)
3 | NC(=O)CN(CC(N)=O)C(N)=O | > 100 µM (inactive) | > 100 µM (inactive) | > 100 µM (inactive) | > 100 µM (inactive) | > 100 | > 100 µM (inactive) | > 100 µM (inactive) | > 100 µM (inactive) | > 100 µM (inactive) | > 100 µM (inactive) | > 100 µM (inactive) | > 100 µM (inactive) | > 100 µM (inactive) | > 100 µM (inactive) |  | > 100 µM (inactive) | > 100 µM (inactive)
4 | COc1cc(Br)c(C2OCCCO2)cc1OCc1ccccc1 | > 100 µM (inactive) | 73.5 µM (inactive) | 37.9 µM (inactive) |  | 61.1 | 53.2 µM (inactive) | 78.3 µM (inactive) | 67.9 µM (inactive) | 52.8 µM (inactive) | 64 µM (inactive) | > 100 µM (inactive) | > 100 µM (inactive) | 46.3 µM (inactive) | > 100 µM (inactive) |  | > 100 µM (inactive) | 
5 | CC(=O)O[C@H]1CCC2[C@@H]3CCC4Nc5c(cnn5-c5ccccc5)C[C@]4(C)C3CC[C@@]21C (stereo not given in full) | 30.5 µM (inactive) | 17.5 µM (inactive) | 14.6 µM (inactive) | 3.2 µM (inactive) | 13.2 | 12.6 µM (inactive) | 12.8 µM (inactive) | 14.4 µM (inactive) | 4.2 µM (inactive) | 5.65 µM (inactive) | 2.97 µM (inactive) | 17.1 µM (inactive) | 7.94 µM (inactive) | 14.5 µM (inactive) |  | 17.9 µM (inactive) | 11.5 µM (inactive)
6 | CCc1ccccc1-n1c2nc(=O)n(C)c(=O)c-2nc2ccccc21 | 15.9 µM (inactive) | 8.24 µM (inactive) | 3.92 µM (inactive) | 20 µM (inactive) | 10 | 12.1 µM (inactive) |  | 6.59 µM (inactive) | 12.6 µM (inactive) | 13.7 µM (inactive) | 11.5 µM (inactive) | 17.4 µM (inactive) | 4.29 µM (inactive) | 10.8 µM (inactive) |  | 16 µM (inactive) | 5.11 µM (inactive)
7 | CCCN(CCCCC(NC(C)=O)C(=O)NCc1ccccc1)C(=O)NCCCl (stereo not given) |  | > 100 µM (inactive) | > 100 µM (inactive) | > 100 µM (inactive) | > 100 | > 100 µM (inactive) |  | > 100 µM (inactive) | > 100 µM (inactive) | > 100 µM (inactive) | > 100 µM (inactive) |  | > 100 µM (inactive) | > 100 µM (inactive) | > 100 µM (inactive) | > 100 µM (inactive) | > 100 µM (inactive)
8 | COc1ccc(C(C#N)NNc2nc(C)cc(O)n2)cc1OC (stereo not given) |  | > 100 µM (inactive) | > 100 µM (inactive) | > 100 µM (inactive) | > 100 | > 100 µM (inactive) | > 100 µM (inactive) | > 100 µM (inactive) | > 100 µM (inactive) | > 100 µM (inactive) | > 100 µM (inactive) | > 100 µM (inactive) | > 100 µM (inactive) |  | > 100 µM (inactive) | > 100 µM (inactive) | > 100 µM (inactive)
9 | COc1ccc2c(c1)C(CCN)C(=O)N2 (stereo not given) | > 100 µM (inactive) | > 100 µM (inactive) | > 100 µM (inactive) | > 100 µM (inactive) | > 100 | > 100 µM (inactive) | > 100 µM (inactive) | > 100 µM (inactive) | > 100 µM (inactive) |  | > 100 µM (inactive) | > 100 µM (inactive) | > 100 µM (inactive) |  |  | > 100 µM (inactive) | > 100 µM (inactive)
10 | O=C(c1ccco1)N(C(=S)N1CCN(c2ccccn2)CC1)C1CCCCC1 |  | > 100 µM (inactive) | > 100 µM (inactive) | > 100 µM (inactive) | > 100 | > 100 µM (inactive) | > 100 µM (inactive) | > 100 µM (inactive) | > 100 µM (inactive) | > 100 µM (inactive) | > 100 µM (inactive) | > 100 µM (inactive) | > 100 µM (inactive) | > 100 µM (inactive) | > 100 µM (inactive) | > 100 µM (inactive) | > 100 µM (inactive)
11 | COc1ccc(/C=C/C(=O)c2sc(NC(=S)NC(=O)c3ccc(Cl)cc3)nc2C)cc1OC |  | 43 µM (inactive) | 59.6 µM (inactive) | 75.9 µM (inactive) | 35 | 27.4 µM (inactive) | 32.2 µM (inactive) | 52.6 µM (inactive) | 24 µM (inactive) | 95.5 µM (inactive) | 77.4 µM (inactive) | 47.1 µM (inactive) |  | 40.5 µM (inactive) | 32 µM (inactive) | 34.6 µM (inactive) | 47.5 µM (inactive)
12 | CC1CCC2(C)C(CC=C(C=O)C2(O)C=O)C12CO2 (stereo not given) | 6.7 µM (inactive) | 10.4 µM (inactive) | 1.76 µM (inactive) | 2.96 µM (inactive) | 2.14 | 1.7 µM (inactive) | 2.69 µM (inactive) | 1.36 µM (inactive) | 2.15 µM (inactive) | 1.48 µM (inactive) | 3.31 µM (inactive) | 2.52 µM (inactive) |  | 9.66 µM (inactive) | 1.71 µM (inactive) | 2.81 µM (inactive) | 1.52 µM (inactive)
13 | COc1cc2cc3c4c(cc(OC)c(OC)c4c2cc1OC)CCN3C(=O)CCC(=O)NCCCN(C)C |  | > 100 µM (inactive) | > 100 µM (inactive) | > 100 µM (inactive) | > 100 | 33.6 µM (inactive) | 14.3 µM (inactive) | 17.6 µM (inactive) | 38.5 µM (inactive) | > 100 µM (inactive) | 37 µM (inactive) | 20.1 µM (inactive) | 14.7 µM (inactive) | > 100 µM (inactive) | 25.2 µM (inactive) | 41.9 µM (inactive) | > 100 µM (inactive)
14 | O=C1c2ccncc2C(=O)c2c(O)ccc(O)c21 | 19 µM (inactive) | 5.48 µM (inactive) | 4.27 µM (inactive) | > 10 µM (inactive) | 4.52 | 10.1 µM (inactive) | 4.25 µM (inactive) | 4.65 µM (inactive) | 5.16 µM (inactive) | 4.35 µM (inactive) | 12.6 µM (inactive) | 8.05 µM (inactive) |  | 12.4 µM (inactive) | 11 µM (inactive) | 16 µM (inactive) | 
15 | CC(=O)N1c2ccccc2C2=CC3C4C(=O)N(c5ccccc5)C(=O)C4C21C1C(=O)N(c2ccccc2)C(=O)C31 (stereo not given) | 74.5 µM (inactive) | 32.4 µM (inactive) | 31 µM (inactive) | 48.3 µM (inactive) | 17.1 | 15.1 µM (inactive) | 43.9 µM (inactive) |  |  |  | 7.06 µM (inactive) | 17.3 µM (inactive) |  | 16.4 µM (inactive) | 32.5 µM (inactive) | 13.9 µM (inactive) | 13.8 µM (inactive)
16 | CNC(=O)N(CCCCC(NC(C)=O)C(=O)NCc1ccccc1)Cc1ccccc1 (stereo not given) | > 100 µM (inactive) | > 100 µM (inactive) | > 100 µM (inactive) | > 100 µM (inactive) | > 100 | > 100 µM (inactive) | > 100 µM (inactive) | > 100 µM (inactive) | > 100 µM (inactive) | > 100 µM (inactive) | > 100 µM (inactive) | > 100 µM (inactive) | > 100 µM (inactive) | > 100 µM (inactive) |  | > 100 µM (inactive) | > 100 µM (inactive)
17 | COc1cc(CNc2nc3ccc(C(F)(F)F)cc3nc2-c2ccccc2)cc(OC)c1OC | 38.2 µM (inactive) | 20 µM (inactive) |  | 14.3 µM (inactive) | 25.4 | 18.6 µM (inactive) | 32.1 µM (inactive) | 40 µM (inactive) | 6.11 µM (inactive) |  | 34.7 µM (inactive) | 20.9 µM (inactive) | 18.7 µM (inactive) | 65.8 µM (inactive) |  | 44.5 µM (inactive) | 34.9 µM (inactive)
18 | COc1cc(CNC2c3cc4c(cc3C(c3cc(OC)c(OC)c(OC)c3)[C@H]3C(=O)OCC23)OCO4)cc(OC)c1OC (stereo not given in full) | 0.254 µM (active) | 0.417 µM (active) | 0.42 µM (active) |  | 0.324 | 0.298 µM (active) | 0.288 µM (active) | 0.447 µM (active) | 0.419 µM (active) | 0.308 µM (active) | 0.137 µM (active) | 0.426 µM (active) | 0.216 µM (active) | 0.272 µM (active) | 0.314 µM (active) | 0.318 µM (active) | > 100 µM (inactive)
